Read-outs that look alike come from different tables or passages of the source.
Experiments:
Assay in all cases: Camptothecin drug cellular activity test (MTS cell proliferation)
Format in all cases: cell-based, human
[1] = tested on: BXPC-3; settings: read-out: Cell Viability, BXPC-3
Method: (§1) The cytotoxic activity of camptothecin drugs was determined by the following experimental process: Camptothecin drugs were added to cell culture media that grows human tumors cells that express A431, Fadu, Bxpc-3 (EGFR-positive cells) and U87-MG, SW620 (negative control cells). Cell survival rates were measured after the cells were cultured for 72 hours. Cell-based in vitro experiments are used to determine cell survival rate, cytotoxicity, and programmed cell death induced by the camptothecin drug of the present application.
(§2) The in vitro efficacy of the camptothecin drugs was determined by cell proliferation test. CellTiter 96® Aqueous One Solution Cell Proliferation Assay is commercially available (Promega Corp., Madison, Wis.). CellTiter 96® AQueous One Solution Cell Proliferation Assay(a) is a colorimetric method to detect the number of living cells in cell proliferation and cytotoxicity experiments. This reagent contains a novel tetrazolium compound [3-(4, 5-dimethylthiazol-2-yl)-5-(3-carboxymethoxyphenyl)-2-(4-sulfophenyl)-2H-tetrazolium, inner salt; MTS] and an electronic coupling agent (phenazine ethosulfate; PES). PES has enhanced chemical stability, which allows it to be mixed with MTS to form a stable solution. This convenient “single solution” mode is an improvement on the basis of the first generation CellTiter 96*AQueous Assay. The electronic coupling agent PMS and MTS solution used in the CellTiter 96*AQueous Assay are provided separately. MTS (Owen's reagent) is reduced by cell organisms into a colored formazan product (Illustration 1), which can be directly dissolved in the culture medium.
(§3) The conversion in all likelihood is completed under the action of NADPH or NADH produced by dehydrogenases in metabolically active cells. When testing, just add a small amount of CellTiter 96® AQueous One Solution Reagent directly to the culture plate well, incubate for 1-4 hours, and then read the absorbance value at 490 nm with a microplate reader.
(§4) The amount of formazan detected at 490 nm is directly proportional to the number of viable cells in culture. Since the formazan product of MTS is soluble in tissue culture medium, CellTiter 96® AQueous One Solution Assay has fewer steps than MTT or INT methods.
(§5) In the present application, A431, Fadu, Bxpc-3 (EGFR positive expressing cells) and U87-MG, SW620 (negative control cells) are used as the research system for in vitro drug efficacy detection. In a 96-well plate, use an appropriate cell density for plating, and after 24 hours, add camptothecin. After 24 hours, dilute the camptothecin drug with the test medium (1 uM start, 5-fold dilution, 9 concentrations, add test medium in the tenth column as a blank control), and add the diluted camptothecin drug to the corresponding cell wells. The cell wells were then shaken with a microplate shaker (model: MX100-4A) for 3 minutes at a shaking speed of 550 rpm/min. After shaking, they were placed in a carbon dioxide incubator and incubated for 3 days. After 3 days, add 20 uL MTS (Promega, G3581) to each well for 2 hours, and the microplate reader (Molecular Device, model: SpectraMAX190) reads at […]. By detecting the activity of dehydrogenase in mitochondria, the inhibitory effect of camptothecin drugs on cell proliferation was evaluated.

[2] = tested on: SW620; settings: read-out: Cell Viability, SW620
Method: as §1, §2, §3, §4, §5

[3] = tested on: Fadu; settings: read-out: Cell Viability, Fadu
Method: as §1, §2, §3, §4, §5

[4] = tested on: U87-MG; settings: read-out: Cell Viability, U87-MG
Method: as §1, §2, §3, §4, §5

[5] = tested on: A431; settings: read-out: Cell Viability, A431
Method: as §1, §2, §3, §4, §5

[6] = Homo sapiens, 72 h, BXPC-3, EGFR-positive cells, 3 days incubation, MTS
[7] = Homo sapiens, SW-620, 72 h, SW620, negative control cells, 3 days incubation, MTS
[8] = Homo sapiens, 72 h, Fadu, EGFR-positive cells, 3 days incubation, MTS
[9] = Homo sapiens, U-87 MG, 72 h, U87-MG, negative control cells, 3 days incubation, MTS
[10] = Homo sapiens, A-431, 72 h, A431, EGFR-positive cells, 3 days incubation, MTS

SMILES: CC[C@@]1(O)C(=O)OCc2c1cc1n(c2=O)Cc2c-1nc1cc(F)c(C)c3c1c2[C@@H](NC(=O)[C@H](C)O)CC3 [Compound 2]
- IC50 [1, 6]: 38.8 nM
- IC50 [2, 7]: 10.4 nM
- IC50 [3, 8]: 11.1 nM
- IC50 [4, 9]: 7.4 nM
- IC50 [5, 10]: 40.9 nM

SMILES: CC[C@@]1(O)C(=O)OCc2c1cc1n(c2=O)Cc2c-1nc1cc(F)c(C)c3c1c2[C@H](NC(=O)[C@H](O)C(F)(F)F)CC3 [Compound 12]
- IC50 [1, 6]: 1.6 nM
- IC50 [2, 7]: 0.06 nM
- IC50 [3, 8]: 0.002 nM
- IC50 [4, 9]: 0.06 nM
- IC50 [5, 10]: 15.5 nM

SMILES: CC[C@@]1(O)C(=O)OCc2c1cc1n(c2=O)Cc2c-1nc1cc(F)c(C)c3c1c2[C@H](NC(=O)[C@@H](O)C(F)(F)F)CC3 [Compound 13]
- IC50 [1, 6]: 40 nM
- IC50 [2, 7]: 1.06 nM
- IC50 [3, 8]: 0.06 nM
- IC50 [4, 9]: 0.32 to 1.6 nM
- IC50 [5, 10]: 6.37 nM

SMILES: CC[C@@]1(O)C(=O)OCc2c1cc1n(c2=O)Cc2c-1nc1cc(F)c(C)c3c1c2[C@@H](NC(=O)C1(O)CCCC1)CC3 [Compound 25]
- IC50 ([1]; Homo sapiens, BXPC-3, 72 h): 15.8 nM
- IC50 ([2]; Homo sapiens, SW-620, 72 h): 1.5 nM
- IC50 ([3]; Homo sapiens, FaDu, 72 h): 41 nM
- IC50 ([4]; Homo sapiens, U-87 MG, 72 h): 10.4 nM
- IC50 ([5]; Homo sapiens, A-431, 72 h): 11.7 nM

SMILES: CC[C@@]1(O)C(=O)OCc2c1cc1n(c2=O)Cc2c-1nc1cc(F)c(C)c3c1c2[C@@H](NC(=O)C(O)c1ccccc1)CC3 (stereo partly drawn) [Compound 28]
- IC50 ([1]; Homo sapiens, BXPC-3, 72 h): 81 nM
- IC50 ([2]; Homo sapiens, SW-620, 72 h): 11.9 nM
- IC50 ([3]; Homo sapiens, FaDu, 72 h): 14.2 nM
- IC50 ([4]; Homo sapiens, U-87 MG, 72 h): 18.3 nM
- IC50 ([5]; Homo sapiens, A-431, 72 h): 5.12 nM

SMILES: CC[C@@]1(O)C(=O)OCc2c1cc1n(c2=O)Cc2c-1nc1cc(F)c(C)c3c1c2[C@@H](NC(=O)[C@H](O)c1cc(F)cc(F)c1)CC3 [Compound 29]
- IC50 ([1]; Homo sapiens, BXPC-3, 72 h): 90.1 nM
- IC50 ([2]; Homo sapiens, SW-620, 72 h): 2.15 nM
- IC50 ([3]; Homo sapiens, FaDu, 72 h): 41.3 nM
- IC50 ([4]; Homo sapiens, U-87 MG, 72 h): 23.6 nM
- IC50 ([5]; Homo sapiens, A-431, 72 h): 19.6 nM

SMILES: CC[C@@]1(O)C(=O)OCc2c1cc1n(c2=O)Cc2c-1nc1cc(F)c(C)c3c1c2[C@@H](NC(=O)[C@H](O)c1ccc2c(c1)OCO2)CC3 [Compound 30]
- IC50 ([1]; Homo sapiens, BXPC-3, 72 h): 34.2 nM
- IC50 ([2]; Homo sapiens, SW-620, 72 h): 2.25 nM
- IC50 ([3]; Homo sapiens, FaDu, 72 h): 19.2 nM
- IC50 ([4]; Homo sapiens, U-87 MG, 72 h): 29.9 nM
- IC50 ([5]; Homo sapiens, A-431, 72 h): 19.9 nM

SMILES: CC[C@H](O)C(=O)N[C@H]1CCc2c(C)c(F)cc3nc4c(c1c23)Cn1c-4cc2c(c1=O)COC(=O)[C@]2(O)CC [Compound 31]
- IC50 ([1]; Homo sapiens, BXPC-3, 72 h): 55.4 nM
- IC50 ([2]; Homo sapiens, SW-620, 72 h): 17.5 nM
- IC50 ([3]; Homo sapiens, FaDu, 72 h): 17.5 nM
- IC50 ([4]; Homo sapiens, U-87 MG, 72 h): 10.8 nM
- IC50 ([5]; Homo sapiens, A-431, 72 h): 14.8 nM

SMILES: CCc1c2c(nc3ccc(O)cc13)-c1cc3c(c(=O)n1C2)COC(=O)[C@]3(O)CC [SN38, reference compound]
- IC50 ([1]; BXPC-3, EGFR-positive cells, 3 days incubation, MTS): 120 nM
- IC50 ([2]; SW620, negative control cells, 3 days incubation, MTS): 3.28 nM
- IC50 ([3]; Fadu, EGFR-positive cells, 3 days incubation, MTS): 42.1 nM
- IC50 ([4]; U87-MG, negative control cells, 3 days incubation, MTS): 15.7 nM
- IC50 ([5]; A431, EGFR-positive cells, 3 days incubation, MTS): 13.6 nM

— patent US20220378928A1, “A Camptothecin Drug and Its Antibody Conjugate Thereof” (priority 2020, published 2022)
